Results from article PMC10341549, “Inhibitory Investigations of Acyl-CoA Derivatives against Human Lipoxygenase Isozymes” (International Journal of Molecular Sciences, 2023).
Where two headings read alike, the source gives them in different places.

Legend:
h15-LOX-2 = molecular target: T1, h15-LOX-2 (Homo sapiens, UniProt O15296); test: IC50 determination against h15-LOX-2; type: biochemical; conditions: 10 μM AA, 25 mM HEPES pH 7.5, 0.01% Triton X-100, 22 °C
T1 construct: His tag; made in house
T1 sequence (O15296 1-676): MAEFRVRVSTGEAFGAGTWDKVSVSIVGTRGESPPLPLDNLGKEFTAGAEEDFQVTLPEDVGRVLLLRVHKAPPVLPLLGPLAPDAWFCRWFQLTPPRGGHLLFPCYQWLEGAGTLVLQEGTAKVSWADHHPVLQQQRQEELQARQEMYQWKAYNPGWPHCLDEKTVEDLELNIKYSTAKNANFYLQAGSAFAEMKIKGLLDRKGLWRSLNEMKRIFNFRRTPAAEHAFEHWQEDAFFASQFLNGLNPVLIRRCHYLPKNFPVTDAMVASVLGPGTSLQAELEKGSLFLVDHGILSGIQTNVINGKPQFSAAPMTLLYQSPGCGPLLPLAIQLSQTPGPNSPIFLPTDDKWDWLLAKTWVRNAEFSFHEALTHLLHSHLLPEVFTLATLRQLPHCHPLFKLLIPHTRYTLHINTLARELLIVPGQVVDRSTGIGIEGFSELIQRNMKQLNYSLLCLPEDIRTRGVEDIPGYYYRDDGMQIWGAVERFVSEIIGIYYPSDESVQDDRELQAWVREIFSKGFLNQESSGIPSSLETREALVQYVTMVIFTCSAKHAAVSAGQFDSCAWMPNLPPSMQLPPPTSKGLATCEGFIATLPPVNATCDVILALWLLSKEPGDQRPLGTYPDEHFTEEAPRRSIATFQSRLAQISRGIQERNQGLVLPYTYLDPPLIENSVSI
Procedure: Overexpression and purification of his-tagged wild-type h12-LOX (Uniprot entry P18054), h15-LOX-1 (Uniprot entry P16050), and h15-LOX-2 (Uniprot entry O15296) were performed using nickel-affinity chromatography. The purity of h12-LOX, h15-LOX-1, and h15-LOX-2 was assessed using SDS gel as greater than 85%, and metal content was assessed with a Finnigan inductively coupled plasma mass spectrometer (ICP-MS, Thermo Fischer Scientific, San Jose, USA) via comparison with iron standard solution. Cobalt-EDTA was used as an internal standard. WT h5-LOX (UniProt entry P09917) was expressed in Rosetta 2 cells (Novagen) transformed with the pET14b-Stable-5-LOX plasmid (a gift from Marcia Newcomer of Louisiana State University) and grown in Terrific Broth containing 34 μg/mL chloramphenicol and 100 μg/mL ampicillin at 37 °C for 3.5 h, then placed at 20 °C for an additional 26 h. Cells were pelleted and resuspended in 50 mM Tris (pH 8.0), 500 mM NaCl, 20 mM imidazole with 1 μM pepstatin, 100 μM PMSF, and DNaseI (Sigma, Kanagawa, Japan). The cells were lysed in a French pressure cell and centrifuged at 40,000× g for 20 min at 4 °C. Saturated ammonium sulfate was added to achieve a final solution of 10% and inverted several times. The lysate was centrifuged at 40,000× g for 10 min at 4 °C. The pellet was discarded, and the supernatant was increased to a final concentration of 50% ammonium sulfate. The supernatant was rotated for 10 min at 4 °C then centrifuged at 40,000× g for 10 min at 4 °C. The pellet was split into 150 mg aliquots. The WT h5-LOX used for the kinetics in this work was not purified due to a dramatic loss in activity and was therefore prepared as an ammonium-sulfate precipitate.
IC50 values for each acyl-CoA were measured against h5-LOX, h12-LOX, h15-LOX-1, and h15-LOX-2. The reactions were carried out in 25 mM HEPES buffer (pH 8.00), 0.01% Triton X-100, and 10 μM AA for h12-LOX; 25 mM HEPES buffer (pH 7.5), 0.01% Triton X-100, and 10 μM AA for h15-LOX-1 and h15-LOX-2; and 50 mM HEPES buffer (pH 7.5), 100 µM EDTA, 50 mM NaCl, 200 µM ATP, and 10 μM AA for h5-LOX. IC50 reactions were implemented with h15-LOX-1 (0.125 μM), h12-LOX (0.300 μM), h15-LOX-2 (0.5 μM), and h5-LOX (∼600 nM ammonium sulfate salt) at 22 °C in a 1 cm^2 quartz cuvette containing 2 mL of the according buffer and 10 μM AA for no longer than 2 min to avoid any cleavage of the acyl-coenzyme A. Inhibitor concentrations ranging from 50 μM to 0.01 μM were used. All reactions were conducted using a Cary-UV Vis spectrophotometer (Agilent, Santa Clara, CA, USA). The fastest rates over 15 s intervals were recorded. IC50 values were obtained by determining the percent of inhibition of the enzymatic rate at ten inhibitor concentrations and plotting the rate against the inhibitor concentration, followed by a hyperbolic saturation curve fit. The saturation curve fits were performed in duplicate or triplicate, depending on the quality of the data. […] Through HPLC monitoring, we were able to determine a lack of degradation of the fatty acyl-CoAs over the first hour.

h12-LOX = molecular target: T2, h12-LOX (Homo sapiens, UniProt P18054); parameters: method as in PMID 37506345; conditions: 10 μM AA, 25 mM HEPES pH 8.00, 0.01% Triton X-100, 22 °C, published previously, ref [30], cited from earlier work
T2 construct: His tag; made in house
T2 sequence (P18054 1-663): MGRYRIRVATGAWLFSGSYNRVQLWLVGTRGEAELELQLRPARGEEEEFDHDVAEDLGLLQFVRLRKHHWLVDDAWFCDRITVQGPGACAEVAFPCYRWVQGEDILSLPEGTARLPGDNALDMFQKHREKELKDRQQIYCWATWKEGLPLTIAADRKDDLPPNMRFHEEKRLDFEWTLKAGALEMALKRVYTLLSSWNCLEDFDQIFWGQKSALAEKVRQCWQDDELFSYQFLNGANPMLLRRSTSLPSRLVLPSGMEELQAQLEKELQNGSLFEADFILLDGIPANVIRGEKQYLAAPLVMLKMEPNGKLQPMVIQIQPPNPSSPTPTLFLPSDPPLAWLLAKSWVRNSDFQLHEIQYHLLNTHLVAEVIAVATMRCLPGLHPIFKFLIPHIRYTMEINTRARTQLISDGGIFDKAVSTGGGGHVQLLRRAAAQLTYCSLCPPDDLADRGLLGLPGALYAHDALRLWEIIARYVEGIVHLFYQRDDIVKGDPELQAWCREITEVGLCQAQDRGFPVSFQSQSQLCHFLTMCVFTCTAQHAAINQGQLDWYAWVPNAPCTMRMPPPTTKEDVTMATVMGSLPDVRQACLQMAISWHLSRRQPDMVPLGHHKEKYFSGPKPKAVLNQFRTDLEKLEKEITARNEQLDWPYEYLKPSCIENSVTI

[1] = listed as palmitoleoyl-CoA (16:1)

Compound | IC50 (h15-LOX-2) [µM] | IC50 (h12-LOX) [µM] | also measured
CCCCC/C=C\C/C=C\C/C=C\C/C=C\CCCC(=O)SCCNC(=O)CCNC(=O)[C@H](O)C(C)(C)COP(=O)(O)OP(=O)(O)OC[C@H]1O[C@@H](n2cnc3c(N)ncnc32)[C@H](O)[C@@H]1OP(=O)(O)O [Arachidonoyl-CoA (20:4), arachidonoyl-coenzyme A (20:4)] | > 500 | 110 ± 20 | IC50 (h15-LOX-2; listed as arachidonoyl-CoA (20:4)): > 100 µM
CC/C=C\C/C=C\C/C=C\C/C=C\C/C=C\C/C=C\CCC(=O)SCCNC(=O)CCNC(=O)C(O)C(C)(C)COP(=O)(O)OP(=O)(O)OC[C@H]1O[C@@H](n2cnc3c(N)ncnc32)[C@H](O)[C@@H]1OP(=O)(O)O (stereo partly shown) [Docosahexaenoyl CoA (22:6), docosahexaenoyl-coenzyme A (22:6)] | > 500 | > 500 | IC50 (h12-LOX; listed as docosahexaenoyl-CoA (22:6)): > 200 µM
CCCCC/C=C\C/C=C\CCCCCCCC(=O)SCCNC(=O)CCNC(=O)[C@H](O)C(C)(C)COP(=O)(O)OP(=O)(O)OC[C@H]1O[C@@H](n2cnc3c(N)ncnc32)[C@H](O)[C@@H]1OP(=O)(O)O [Linoleoyl-CoA (18:2), linoleoyl-CoA] | > 100 | > 200 | –
CCCCCCCC/C=C\CCCCCCCC(=O)SCCNC(=O)CCNC(=O)[C@H](O)C(C)(C)COP(=O)(O)OP(=O)(O)OC[C@H]1O[C@@H](n2cnc3c(N)ncnc32)[C@H](O)[C@@H]1OP(=O)(O)O [Oleoyl-CoA (18:1), oleoyl-coenzyme A (18:1)] | 0.62 ± 0.06 | 32 ± 4 | –
CCCCCC/C=C\CCCCCCCC(=O)SCCNC(=O)CCNC(=O)[C@H](O)C(C)(C)COP(=O)(O)OP(=O)(O)OC[C@H]1O[C@@H](n2cnc3c(N)ncnc32)[C@H](O)[C@@H]1OP(=O)(O)O [Palmitoleoyl-CoA (16:1), palmitoleoyl-coenzyme A (16:1)] | > 200 | > 500 | IC50 (h15-LOX-2; [1]): > 100 µM; IC50 (h12-LOX; [1]): > 200 µM
CCCCCCCCCCCCCCCC(=O)SCCNC(=O)CCNC(=O)[C@H](O)C(C)(C)COP(=O)(O)OP(=O)(O)OC[C@H]1O[C@@H](n2cnc3c(N)ncnc32)[C@H](O)[C@@H]1OP(=O)(O)O [Palmitoyl-CoA (16:0), palmitoyl-coenzyme A (16:0)] | > 200 | > 200 | IC50 (h15-LOX-2; listed as palmitoyl-CoA (16:0)): > 100 µM
CCCCCCCCCCCCCCCCCC(=O)SCCNC(=O)CCNC(=O)[C@H](O)C(C)(C)COP(=O)(O)OP(=O)(O)OC[C@H]1O[C@@H](n2cnc3c(N)ncnc32)[C@H](O)[C@@H]1OP(=O)(O)O [Stearoyl-CoA (18:0), stearoyl-coenzyme A (18:0)] | 7.6 ± 1 | > 200 | –
CCCCC/C=C\C/C=C\C/C=C\CCCCC(=O)SCCNC(=O)CCNC(=O)[C@H](O)C(C)(C)COP(=O)(O)OP(=O)(O)OC[C@H]1O[C@@H](n2cnc3c(N)ncnc32)[C@H](O)[C@@H]1OP(=O)(O)O [ɣ-Linolenoyl-CoA (18:3), ɣ-linolenoyl-coenzyme A (18:3)] | > 500 | > 200 | IC50 (h15-LOX-2; listed as ɣ-linolenoyl-CoA (18:3)): > 100 µM
